Columns and labels:
Type in all cases: biochemical
[1] = molecular target: T1, Casein Kinase 1 (CK1 delta isoform) (Rattus norvegicus, UniProt Q06486); assay: Kinase selectivity assay Casein Kinase 1
T1 construct: a truncation at amino acid 318 of the C-terminal portion of the rat CK1 delta isoform; purchased New England Biolabs 6030; host or cells: E. coli
T1 sequence (Q06486 1-317): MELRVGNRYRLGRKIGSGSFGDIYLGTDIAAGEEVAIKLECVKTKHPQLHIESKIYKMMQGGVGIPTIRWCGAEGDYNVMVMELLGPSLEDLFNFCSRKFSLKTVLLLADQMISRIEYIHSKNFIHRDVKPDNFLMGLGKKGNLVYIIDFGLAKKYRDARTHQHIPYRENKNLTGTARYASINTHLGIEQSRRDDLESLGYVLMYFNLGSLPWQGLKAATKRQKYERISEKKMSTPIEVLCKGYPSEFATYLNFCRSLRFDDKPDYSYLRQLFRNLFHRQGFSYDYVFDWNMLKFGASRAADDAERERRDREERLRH
Description: (§1) Assays to test compound inhibition of other kinases were preformed using methods that measure the amount of phosphorylation of a biotinylated peptide substrate. Biotinylated peptide substrates were selected from the literature as appropriate for the enzyme being evaluated. […] Assay conditions vary slightly for each protein kinase, for example, insulin receptor kinase requires 10 mM MnCl2 for activity and Calmodulin-dependent protein kinase requires calmodulin and 2 mM CaCl2. The reaction mixture was dispensed into the wells of a streptavidin coated Flashplate and 1 μL test compound in 100% DMSO was added to a 100 μL reaction volume resulting in a final concentration of 1% DMSO in the reaction. Enzyme was diluted in 50 mM Tris-HCl pH=8.0, 0.1% BSA and added to each well. The reaction was incubated for one hour at 30° C. in the presence of a test compound. After one hour the reaction mix was aspirated from the plate and the plate was washed with PBS containing 100 mM EDTA. The plate was read on a scintillation counter to determine ^33P-γ-ATP incorporated into the immobilized peptide substrate. Test compounds were assayed in duplicate at 8 concentrations (100 μM, 10 μM, 1 μM, 100 nM, 10 nM, 1 nM, 100 pM, 10 pM). A maximum and minimum signal for the assay was determined on each plate. […] Known inhibitor compounds appropriate for the kinase being assayed were also included on each plate. […]

[2] = molecular target: T2, PDGF-R (beta subunit kinase domain) (Homo sapiens, UniProt P09619); assay: Kinase selectivity assay PDGF-R
T2 construct: nucleotides 1874–3507 of the human PDGF-R beta subunit kinase domain; polyhistidine (N)
Description: as §1

PKC β-2 = molecular target: T3, PKC β-2 (Homo sapiens, UniProt P05771); assay: Kinase selectivity assay PKC β-2
T3 construct: purchased BIOMOL SE-143; host or cells: insect cells
Description: Assays to test compound inhibition of other kinases were preformed using methods that measure the amount of phosphorylation of a biotinylated peptide substrate. Biotinylated peptide substrates were selected from the literature as appropriate for the enzyme being evaluated. The general procedure used to assay for kinase activity is as follows: a kinase reaction mix was prepared in 50 mM Tris-HCl pH=8, 10 mM MgCl2, 0.1 mM Na3VO4, 1 mM DTT, 10 μM ATP, 0.25–1 μM biotinylated peptide substrate, 0.2–0.8 μCuries per well ^33P-γ-ATP (2000–3000 Ci/mmol). Assay conditions vary slightly for each protein kinase, for example, insulin receptor kinase requires 10 mM MnCl2 for activity and Calmodulin-dependent protein kinase requires calmodulin and 2 mM CaCl2. The reaction mixture was dispensed into the wells of a streptavidin coated Flashplate and 1 μL test compound in 100% DMSO was added to a 100 μL reaction volume resulting in a final concentration of 1% DMSO in the reaction. Enzyme was diluted in 50 mM Tris-HCl pH=8.0, 0.1% BSA and added to each well. The reaction was incubated for one hour at 30° C. in the presence of a test compound. […] The plate was read on a scintillation counter to determine ^33P-γ-ATP incorporated into the immobilized peptide substrate. […] A maximum and minimum signal for the assay was determined on each plate. […]

T3 sequence (P05771 1-673 isoform P05771-2): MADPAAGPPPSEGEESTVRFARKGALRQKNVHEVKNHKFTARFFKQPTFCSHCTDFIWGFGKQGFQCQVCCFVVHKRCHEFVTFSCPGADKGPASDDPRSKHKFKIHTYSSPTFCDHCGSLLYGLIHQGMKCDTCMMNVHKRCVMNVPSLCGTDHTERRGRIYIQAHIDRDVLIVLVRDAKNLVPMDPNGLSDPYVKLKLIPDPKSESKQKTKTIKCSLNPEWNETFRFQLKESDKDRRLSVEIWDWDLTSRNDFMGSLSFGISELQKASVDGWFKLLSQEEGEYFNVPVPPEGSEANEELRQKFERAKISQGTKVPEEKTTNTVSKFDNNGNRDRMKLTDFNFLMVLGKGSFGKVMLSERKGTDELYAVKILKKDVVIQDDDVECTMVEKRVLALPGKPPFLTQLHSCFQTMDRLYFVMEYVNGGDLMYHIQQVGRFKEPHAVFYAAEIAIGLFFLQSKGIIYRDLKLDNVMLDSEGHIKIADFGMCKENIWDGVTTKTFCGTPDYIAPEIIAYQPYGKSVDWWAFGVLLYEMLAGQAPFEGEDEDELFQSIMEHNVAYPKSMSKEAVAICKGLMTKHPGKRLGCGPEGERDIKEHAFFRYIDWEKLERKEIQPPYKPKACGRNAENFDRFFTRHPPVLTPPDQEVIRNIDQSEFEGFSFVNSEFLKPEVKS
T2 sequence (P09619 554-1106 limits assumed): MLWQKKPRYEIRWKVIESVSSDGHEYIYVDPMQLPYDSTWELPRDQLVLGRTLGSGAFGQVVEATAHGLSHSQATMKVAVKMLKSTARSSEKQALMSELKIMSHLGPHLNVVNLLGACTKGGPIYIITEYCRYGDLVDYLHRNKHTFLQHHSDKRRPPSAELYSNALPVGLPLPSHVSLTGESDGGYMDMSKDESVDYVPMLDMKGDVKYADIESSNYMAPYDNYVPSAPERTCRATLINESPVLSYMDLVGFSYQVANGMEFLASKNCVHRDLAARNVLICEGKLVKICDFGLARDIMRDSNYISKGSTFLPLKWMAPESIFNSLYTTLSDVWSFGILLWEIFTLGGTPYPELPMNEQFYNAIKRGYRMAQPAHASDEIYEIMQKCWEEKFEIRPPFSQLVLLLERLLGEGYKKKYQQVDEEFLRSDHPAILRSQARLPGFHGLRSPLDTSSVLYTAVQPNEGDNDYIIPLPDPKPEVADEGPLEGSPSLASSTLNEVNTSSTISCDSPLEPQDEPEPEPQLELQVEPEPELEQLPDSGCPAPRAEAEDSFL

- IC50 [1]: 115 nM
- IC50 [2]: 1180 nM
- IC50 (PKC β-2): > 100000 nM
Structure (SMILES): OCCCNc1cncc(-c2ncnc(Nc3cccc(Cl)c3)n2)c1 [Compound 1, 3-((5-(4-((3-chlorophenyl)amino)-1,3,5-triazin-2-yl)-3-pyridinyl)amino)-1-propanol]

— patent US7205298B2, “Substituted triazine kinase inhibitors” (Janssen Pharmaceutica N.V., priority 2002, dated 2007)
